Assay results from ChEMBL document CHEMBL4177666, “Compound design guidelines for evading the efflux and permeation barriers of Escherichia coli with the oxazolidinone class of antibacterials: Test case for a general approach to improving whole cell Gram-negative activity” (Bioorg Med Chem Lett, 2017).
Converted amounts (≈) assume the structure as drawn.

What was measured:
Format in all cases: functional
[1] = system: Escherichia coli; assay: Antibacterial activity against gram-negative wild type Escherichia coli MG1655 by CLSI broth microdilution method
[2] = system: Staphylococcus aureus; assay: Antibacterial activity against methicillin-susceptible Staphylococcus aureus ATCC 29213 by CLSI broth microdilution method
[3] = system: Escherichia coli; assay: Permeability index, ratio of MIC for wild type Escherichia coli MG1655 to MIC for Escherichia coli MG1655 membrane permeabilized mutant in presence of polymyxinnonapeptide
[4] = system: Escherichia coli; assay: Efflux index, ratio of MIC for wild type Escherichia coli MG1655 to MIC for Escherichia coli MG1655 expressing AcrAB-TolC efflux pump deletion mutant
[5] = system: Escherichia coli; assay: Antibacterial activity against gram-negative Escherichia coli MG1655 membrane permeabilized mutant in presence of polymyxinnonapeptide by CLSI broth microdilution method
[6] = system: Escherichia coli; assay: Antibacterial activity against gram-negative Escherichia coli MG1655 expressing AcrAB-TolC efflux pump deletion mutant by CLSI broth microdilution method

| Structure (SMILES) | MIC [1] [µg/mL] | MIC [2] [µg/mL] | Ratio [3] | Ratio [4] | MIC [5] [µg/mL] | MIC [6] [µg/mL] |
| --- | --- | --- | --- | --- | --- | --- |
| NCc1ccc(-c2ccc(N3C[C@H](CO)OC3=O)cc2O)cc1 | > 256 | > 64 |  |  |  |  |
| NCCC#Cc1ccc(N2C[C@H](CO)OC2=O)cc1F | > 256 | > 64 |  |  |  |  |
| N/C(=N\O)c1ccc(-c2ccc(N3C[C@H](CO)OC3=O)cc2)cc1 | > 256 | 2 (≈ 6.11 µM) | >8 | >32 | 32 | 8 (≈ 24.4 µM) |
| NCc1ccc(-c2ccc(N3C[C@H](CO)OC3=O)cc2F)cc1O |  |  | 2.6 | 10.2 |  |  |
| COc1ccccc1-c1ccc(N2C[C@H](CO)OC2=O)cc1 | > 64 | 64 (≈ 214 µM) |  |  |  |  |
| O=C1O[C@@H](CO)CN1c1ccc(O)cc1F | > 256 | > 64 |  |  |  |  |
| CC(=O)NC[C@H]1CN(c2ccc(-c3ccnc(N)c3)c(F)c2)C(=O)O1 | 128 (≈ 372 µM) | 2 (≈ 5.81 µM) | 4 | 16 | 32 | 8 (≈ 23.2 µM) |
| N/C(=N\O)c1ccc(-c2ccc(N3C[C@H](CO)OC3=O)cc2F)cn1 | > 256 | 1 (≈ 2.89 µM) | >16 | >16 | 16 | 16 (≈ 46.2 µM) |
| O=C1O[C@@H](CO)CN1c1ccc(-c2ccc(N3C[C@@H](CO)OC3=O)nc2)c(F)c1 | > 128 | 32 (≈ 79.3 µM) |  |  |  |  |
| CC(=O)NC[C@H]1CN(c2ccc(-c3ccc(CN)cc3)c(F)c2)C(=O)O1 | 64 (≈ 179 µM) | 2 (≈ 5.6 µM) | 2 | 8 | 32 | 8 (≈ 22.4 µM) |
| NCc1ccc(-c2ccc(N3C[C@H](CN4CCOC4=O)OC3=O)cc2F)cc1 | > 256 | 16 (≈ 41.5 µM) |  | >=2 |  | 256 (≈ 664 µM) |
| N#Cc1ccc(-c2ccc(N3C[C@H](CO)OC3=O)nc2)cc1O | > 256 | > 64 |  |  |  |  |
| O=C(NC[C@H]1CN(c2ccc(-c3ccc(F)c(O)c3)c(F)c2)C(=O)O1)C(F)F | > 32 | 1 (≈ 2.51 µM) | >4 | >8 | 8 | 4 (≈ 10 µM) |
| N#Cc1cc(O)cc(-c2ccc(N3C[C@H](Cn4ccnn4)OC3=O)cc2F)c1 | > 256 | 8 (≈ 21.1 µM) | >2 | >4 | 128 | 64 (≈ 169 µM) |
| N/C(=N\O)c1ccc(-c2ccc(N3C[C@H](CO)OC3=O)cc2F)cc1O |  |  | 2 | 1 |  |  |
| O=C(O)c1ccc(N2C[C@H](CO)OC2=O)cc1F | > 256 | > 64 |  |  |  |  |
| O=C1O[C@@H](CNC(=O)C(F)(F)F)CN1c1ccc(-c2ccc(F)c(O)c2)c(F)c1 | > 256 | 32 (≈ 76.9 µM) | >2 | >2 | 256 | 256 (≈ 615 µM) |
| CCOc1cn(C[C@H]2CN(c3ccc(-c4ccc(CN)cc4)c(F)c3)C(=O)O2)nn1 | > 64 | 16 (≈ 38.9 µM) |  | >4 |  | 32 (≈ 77.8 µM) |
| NCc1ccc(-c2ccc(N3C[C@H](Cn4nncc4CO)OC3=O)cc2F)cc1 | > 256 | > 64 |  |  |  |  |
| Nc1cc(-c2ccc(N3C[C@H](CNC(=O)C(F)(F)F)OC3=O)cc2F)ccn1 | > 32 | 4 (≈ 10 µM) | >=4 | >=8 | 16 | 8 (≈ 20.1 µM) |
| NC[C@H]1CN(c2ccc(-c3ccc(F)c(O)c3)c(F)c2)C(=O)O1 | 256 (≈ 799 µM) | 64 (≈ 200 µM) | 1 | 1 | 256 | 256 (≈ 799 µM) |
| NCc1ccc(-c2ccc(N3C[C@H](Cn4nncc4C(=O)O)OC3=O)cc2F)cc1 | > 128 | 16 (≈ 38.9 µM) |  |  |  |  |
| NCc1cc(F)c(-c2ccc(N3C[C@H](CO)OC3=O)cc2F)cc1O |  |  | 2 | 1 |  |  |
| NC(/C=C/c1ccc(N2C[C@H](CO)OC2=O)cc1F)=N\O | > 128 | > 64 |  |  |  |  |

| Structure (SMILES) | MIC [1] [µg/mL] | MIC [2] [µg/mL] | Ratio [3] | Ratio [4] | MIC [5] [µg/mL] | MIC [6] [µg/mL] |
| --- | --- | --- | --- | --- | --- | --- |
| O=C1O[C@@H](CO)CN1c1ccc(-c2cc(O)c(F)cc2F)cc1 | > 256 | 4 (≈ 12.5 µM) | >4 | >8 | 64 | 32 (≈ 99.6 µM) |
| NCc1ccc(-c2ccc(N3C[C@H](Cn4cc(C(=O)O)nn4)OC3=O)cc2F)cc1 | > 256 | > 64 |  |  |  |  |
| NCc1ccc(-c2ccc(N3C[C@H](CNC(=O)C(F)(F)F)OC3=O)cc2F)cc1 | 64 (≈ 156 µM) | 2 (≈ 4.86 µM) | 6 | 32 | 11 | 2 (≈ 4.86 µM) |
| N#Cc1cc(O)cc(-c2ccc(N3C[C@H](Cn4nccn4)OC3=O)cc2F)c1 | > 256 | 32 (≈ 84.4 µM) | >4 | >4 | 64 | 64 (≈ 169 µM) |
| NCc1ccc(-c2ccc(N3C[C@H](Cn4nc[nH]c4=O)OC3=O)cc2F)cc1 | > 64 | 32 (≈ 83.5 µM) |  |  |  |  |
| CC(=O)NC[C@H]1CN(c2ccc(-c3ccc(F)c(O)c3)c(F)c2)C(=O)O1 | > 256 | 2 (≈ 5.52 µM) | >16 | >32 | 16 | 8 (≈ 22.1 µM) |
| NC[C@H]1CN(c2ccc(N3CCOCC3)c(F)c2)C(=O)O1 | > 256 | > 64 |  |  |  |  |
| COc1ccc(N2C[C@H](CO)OC2=O)cc1O | > 256 | > 64 |  |  |  |  |
| O=C1O[C@@H](CO)CN1c1ccc(O)c(F)c1 | > 256 | > 64 |  |  |  |  |
| CC(=O)NC[C@H]1CN(c2ccc(-c3ccc(CN)c(O)c3)c(F)c2)C(=O)O1 | 128 (≈ 343 µM) | 4 (≈ 10.7 µM) | 2 | 16 | 64 | 8 (≈ 21.4 µM) |
| NCc1ccc(-c2ccc(N3C[C@H](Cn4cc(CO)nn4)OC3=O)cc2F)cc1 | 256 (≈ 644 µM) | 16 (≈ 40.3 µM) | 2 |  | 128 | 64 (≈ 161 µM) |
| O=C1O[C@@H](CO)CN1c1ccc(-c2ccc(F)c(O)c2)[n+]([O-])c1 | > 256 | 64 (≈ 200 µM) |  |  |  |  |
| COc1cc(N2C[C@H](CO)OC2=O)ccc1-c1ccc(CN)cc1 | > 256 | > 64 |  |  |  |  |
| O=C1O[C@@H](CO)CN1c1ccc(-c2ccc([N+](=O)[O-])c(O)c2)c(F)c1 |  |  | 1 | 1 |  |  |
| NCc1ccc(-c2ccc(N3C[C@H](C(=O)O)OC3=O)cc2F)cc1 | > 256 | > 64 |  |  |  |  |
| NCc1ccc(-c2ccc(N3C[C@H](Cn4cc(O)nn4)OC3=O)cc2F)cc1 | > 64 | 8 (≈ 20.9 µM) |  | >2 |  | 32 (≈ 83.5 µM) |
| N#Cc1ccc(-c2ccc(N3C[C@H](CN)OC3=O)cc2F)cc1O | > 256 | 64 (≈ 196 µM) |  |  |  |  |
| NCc1ccc(-c2ccc(N3C[C@H](C(N)=O)OC3=O)cc2F)cc1 | > 256 | > 64 |  |  |  |  |
| O=C1O[C@@H](CO)CN1c1ccc(-c2ccccc2F)cc1 | > 64 | 4 (≈ 13.9 µM) |  | >8 |  | 8 (≈ 27.8 µM) |
| NCc1ccc(-c2ccc(N3C[C@H](CN4C(=O)CNC4=O)OC3=O)cc2F)cc1 | > 256 | > 64 |  |  |  |  |
| CC(=O)NC[C@H]1CN(c2ccc(-c3cnc(C#N)c(O)c3)c(F)c2)C(=O)O1 | > 256 | 32 (≈ 86.4 µM) |  | >2 |  | 128 (≈ 346 µM) |
| NCc1ccc(-c2ccc(N3C[C@H](Cn4nncc4O)OC3=O)cc2F)cc1 | > 64 | > 64 |  |  |  |  |
| N/C(=N\O)c1ccc(-c2ccc(N3C[C@H](CNC(=O)C(F)(F)F)OC3=O)cc2F)cc1O | > 256 | > 64 |  |  |  |  |
